Assay results from patent US6649797B2, “Compounds and methods of use to treat infectious diseases” (The Picower Institute for Medical Research, priority 1996, dated 2003).

Tests used:
[1] = system: macrophage-tropic strain of HIV-1; experiment: Inhibition of HIV-1 replication in peripheral blood-derived macrophages (IC50, RT or p24 in medium); type: cell-based; conditions: Human immunodeficiency virus 1, Macrophage, 120 h; 50% inhibition of viral growth; RT or p24 in medium about day 5 or 6 post-infection
Procedure: A quantitative measurement of the activity of the compounds of the invention to block the replication of HIV-1 in non-dividing cells can be determined by culture of a macrophage-tropic strain of HIV-1 on peripheral blood-derived macrophages. The cells are cultured for 5-6 days prior to infection in a medium consisting of DMEM supplemented with 10% type A/B human serum and 200 U/ml Macrophage Colony Stimulating Factor, with half the medium changed after 3 days, to reach a density of about 10^6 cells per 5 ml well. A macrophage-tropic viral stock may be grown on these cells. The concentration of infectious particles in the stock is estimated by measurement of p24 antigen concentration.
To test the effect of compounds of the invention on HIV-1 infection in the above-described culture system, the medium is removed and replaced with medium containing HIV-1 at a concentration of 1 ng of p24 (10^4 TCID50/ml (TCID=tissue culture infectious doses)) and a known concentration of the compound of the invention (the inhibitor). After 24 hours, the cultures are washed to remove non-adherent virus and the culture is re-fed with medium containing the inhibitor at the desired concentration. The amount of replication of HIV-1 is estimated by an assay of the reverse transcriptase activity or by an assay of the concentration of p24 antigen in the culture medium every 2-3 days throughout the post-infection period. In a preferred embodiment the anti-HIV potency of the candidate drug is measured by comparison of the concentration of reverse transcriptase (RT) or of p24 antigen in the medium of the treated and control cultures at the time of the peak of these values in non-treated control cultures, that is about day 5 or 6 post-infection. Repetition at various levels of inhibitor allows for the calculation of the concentration of inhibitor that achieves 50% inhibition of viral growth, IC50. Table I discloses the IC50 of various inhibitors.

[2] = In vitro metabolism with mouse liver post-mitochondrial supernatant and NADPH; type: in vitro ADME
Procedure: Several female ND4 Swiss Webster mice were euthanized by carbon dioxide inhalation and the livers excised and rinsed with ice cold phosphate buffered saline (pH 7.4). The livers were minced, gently homogenized in 50 mM phosphate buffer (pH 7.4) with a Dounce homogenizer, and centrifuged at 9600× g for 20 min. The post-mitochondrial supernatant was kept, glycerol added to 20%, and frozen at −70° C in 1.0 ml aliquots until used. For each incubation, 1.0 ml of a 1.0 mg/ml drug solution was added to 3.0 ml of 50 mM phosphate buffer (pH 7.4), 1.0 ml of 2 mg/ml NADPH in 50 mM phosphate (pH 7.4), and 1.0 ml of the post-mitochondrial supernatant. Five hundred μl of each incubate was then immediately transferred to an ice-cold tube to provide the zero-time sample, and addition 500 μl aliquots removed to ice-cold tubes at 8, 15, 30, and 60 min. The samples were then extracted, and analyzed by HPLC as described in section 7.1. Control incubations were also performed where drug or post-10 mitochondrial supernatant was omitted. […] Peaks in the CNI compound incubations which increased over time, and were not present in control samples lacking the enzyme preparation were treated as putative metabolites.

[3] = target: T1, recombinant RT (p51/p66 heterodimer) (Human immunodeficiency virus type 1 group M subtype B, UniProt P04585); experiment: Binding of [14C]-CNI-H0294 to recombinant RT in solution (immunoprecipitation); set-up: species or system HIV-1; conditions: 20 nmol [14C]-CNI-H0294 with 0.28 nmol RT
T1 construct: recombinant MA or RT (a p51/p66 heterodimer)
Procedure: Twenty nmol of [^14C]-CNI-HO294 were mixed with 0.28 nmol of recombinant MA or RT (a p51/p66 heterodimer) in 40 μl of binding buffer. Samples were incubated for 2 h at 37° C. in the presence or absence of 200 nmol of unlabeled CNI-H0294. MA and RT proteins were immunoprecipitated using protein G agarose and sheep polyclonal anti-MA (αMA) or rabbit anti-RT (αRT) sera, respectively. Pre-immune sera (PI) was used as control. Bound material was eluted from protein G using 0.1 M glycine buffer [pH 2.8] and the radioactivity in the eluate was quantified in a scintillation counter.
Recombinant RT (0.2 μM) was incubated with 3.3 μM of [^14C ]-labeled CNI-H0294 and increasing concentrations of unlabeled (cold) CNI-3094. The amount of [^14C]-CNI-H0294 that bound to RT was measured as in FIG. 11.
0.28 nanomoles of recombinant MA or RT [p66/p51 ] dimer were mixed with 20 nmol of [^14C] CNI-HO294 (specific activity 5×10^4 cpm/nmol) and incubated 2 hr at room temperature in 40 μl of binding buffer (PBS supplemented with 1% BSA, 0.1% Tween 20, 1 μg/ml leupeptin, 1 μg/ml aprotinin, 1 mM PMSF). Sheep anti-MA or rabbit anti-RT sera (both obtained from NIH AIDS Research and Reference Reagent Program) or pre-immune control sera were then added (at 1:100 dilution) and incubation continued for another 1 hr at room temperature. Immune complexes were precipitated with protein G-agarose, washed, and then eluted with 0.1 M glycine, pH 2.8. Radioactivity of the eluate was measured in a scintillation counter.

[4] = Toxicity in mice, median lethal dose by intraperitoneal injection; type: in vivo, mouse
Procedure: The doses of compounds of the invention found to be lethal to 50% of the mice (LD50) were determined by intraperitoneal injection of groups of five animals with increasing doses of each compound. CNI-0294 was administered from 0, 2, 10, 20, 40, 80, 160, 320, 640, 1280 mg/kg in 0.5 ml of water/HCl; CNI-1594 at 0, 2.4, 5, 10, 20, 40, 80 mg/kg in 0.5 ml of water/HCl; CNI-1794 at 0, 20, 50, 80 mg/kg in 0.5 ml of water/HCl; and CNI-1894 at 0, 10, 20, 40, 80, 240, 480, 960 mg/kg in water/HCl. […] The percentage of animals in each group which died were utilized to calculate the LD50 by non-linear curve fitting with the Enzfit software (Elsevier Bioscience; Cambridge, UK) programmed with the Chou equation (Chou 1976, J Theor Biol 39:253-276)).

HIV-1ADA = experiment: Anti-HIV activity in primary human monocytes, day 9 (Table IX, FIG. 12C); type: cell-based; conditions: Human immunodeficiency virus 1, Monocyte, 216 h

SMILES: CC(=O)c1cc(Nc2cc(C)[n+](C)c(N)n2)cc(C(C)=O)c1.[I-] [Compound No. 2, 2-amino-4-(3,5-diacetylphenyl)amino-1,6-dimethylpyrimidinium iodide]
- IC50 [1]: 1 nM

SMILES: CC(=O)c1cc(Nc2cc(C)[n+](C)c(N)n2)cc(C(C)=O)c1 [CNI-0294, 2-Amino-4-(3,5-diacetylphenyl)amino-1,6-dimethylpyrimidinium chloride]
- metabolites produced [2]: three minor and one major metabolite
- metabolic conversion (drug altered, as judged by peak area) ([2]; 60 min incubation): 43.5%
- CNI-H0294 immunoprecipitable with RT [3]: ~0.34 nmol
- radioactivity immunoprecipitable with RT ([3]; specific activity 50,000 cpm/nmol): about 17,000 cpm
- visible signs of toxicity [4]: no overt signs of toxicity detectable at doses approaching the LD50
- LD50 ± standard deviation ([4]; listed as CNI-H0294): 590 mg/kg
- LD50 ([4]; mouse, in vivo, ip, read-out: LD50 ± standard deviation): 588 mg/kg
- IC50 (HIV-1ADA): 50 nM
